Values after ≈ are worked out from the molar mass of the structure shown.
Assays:
A549 cell culture = experiment: Cytotoxicity, colorimetric MTT assay; format: cell-based, human; settings: for Cytotoxicity (in words): A549, MTT assay; for IC50: Homo sapiens, A549, 24 h, read-out: Determined IC50
Experimental: The cytotoxicity of compounds (I–V) was assessed on A549 cell culture using a colorimetric MTT assay. A549 cells were incubated for 24 h at 37 °C, 5% CO2 with solutions of the studied compounds at various concentrations. Next, the cell monolayer was washed, and MTT solution was added in a volume of 0.1 mL at a concentration of […]. After 1 h of MTT contact with the cells, the wells were washed, and the formed formazan crystals were dissolved in 0.1 mL of DMSO. The results were recorded at 560 nm on a CLARIOstar Plus plate photometer (BMG LABTECH, Ortenberg, Germany). The IC50 was calculated using GraphPad Prism 6.0.

Bacillus subtilis = experiment: Disco-diffuse method, antibacterial activity; format: cell-based
Experimental: (§1) The determination of compounds (I, IV, VI–XI) effect concerning microorganisms was carried out using test strains of Escherichia coli, Bacillus subtilis, and Candida tropicalis. They are not only natural inhabitants of natural biocenoses but also a part of human microbiocenosis. Used microorganisms of bacteria were selected as representatives of the Gram-positive and Gram-negative human microbiota. The antibacterial activity of compounds (I, IV, VI–XI) was studied by the disco-diffuse method. The strain culture was transferred sterile from the mown agar into test tubes with 5 mL of nutrient medium to obtain a “night culture” 12–15 h before the experiment. Beef-extract agar (BEA) was used as a nutrient medium for the development of bacterial cells, and Sabouraud’s medium was used for yeast. Bacterial cultures were incubated in a thermostat at 37 °C, and yeast cultures at 32 °C. The melted BEA was poured sterile into Petri dishes (diameter 90 mm) and evenly distributed over the bottom of the dish, covered with a lid, and left on the table until it solidified completely. Next, the dishes with BEA were inoculated with a “lawn” by introducing a strain culture (suspension titer −1–2 × 10^8 CFU/mL) in an amount of 500 µL and evenly distributing it with a sterile spatula. The dishes were left for 60–90 min to dry the culture. Compounds (I, IV, VI–XI) were previously dissolved, and the sequential dilutions were applied to disks. Dimethyl sulfoxide (DMSO) was used as a solvent for the DAA. Water was used as a solvent for their potassium salts. […] This disk was impregnated with a solution of the test compound amounting to 100 μL and incubated in the dark for 24 h at 37 °C (Escherichia coli and Bacillus subtilis) and 48 h at 32 °C (Candida tropicalis). The solution diffuses, forming a concentration gradient of the test compound around the disc. After the incubation period, the inhibition zone or stimulation of microbial growth around the disk was measured in the experimental and control samples. A conclusion was made about the degree (bactericidal) toxicity of compounds. Solvent-treated disks (DMSO) were used as controls. The experiments were performed three times.

Escherichia coli = experiment: Disco-diffuse method, antibacterial activity; format: cell-based
Experimental: as §1

Candida tropicalis = experiment: Disco-diffuse method, fungicidal activity; format: cell-based
Experimental: as §1

[1] = test system: A/California/07/09 ((A)H1N1pdm09) viral strain; format: cell-based, influenza virus
[2] = test system: herpes simplex virus type 1 (HSV-1); set-up: method as in PMID 19892441; settings: endpoint titration (EPTT); cited from earlier work
[3] = at the working concentrations used to assess antiviral activity
[4] = compound concentration 1 mg/mL, 24 h at 37 °C
[5] = compound concentration 5 mg/mL, 24 h at 37 °C
[6] = compound concentration 10 mg/mL, 24 h at 37 °C
[7] = compound concentration 25 mg/mL, 24 h at 37 °C
[8] = compound concentration 50 mg/mL, 24 h at 37 °C
[9] = A549, therapeutic scheme, 24 h after stimulation, working concentration

## CC(C)c1cc2c(cc1S(=O)(=O)[O-])C1(C)CCCC(C)(C(=O)[O-])C1CC2.[K+].[K+] (stereo not drawn) [IV, Potassium 12-sulfodehydroabietate]
A549 cell culture
  Cytotoxicity (in words): weak toxicity
  IC50: > 431 µg/mL
A549 cell culture; [3]
  Cell viability (in words): did not cause a significant decrease in cell viability
Bacillus subtilis; 1-50 mg/mL
  Antibacterial activity (in words): did not show either antibacterial activity or fungicidal activity
Bacillus subtilis; [4]
  The Zone of Growth Inhibition: 0 mm
Bacillus subtilis; [5]
  The Zone of Growth Inhibition: 0 mm
Bacillus subtilis; [6]
  The Zone of Growth Inhibition: 0 mm
Bacillus subtilis; [7]
  The Zone of Growth Inhibition: 0 mm
Bacillus subtilis; [8]
  The Zone of Growth Inhibition: 0 mm
Escherichia coli; 1-50 mg/mL
  Antibacterial activity (in words): did not show either antibacterial activity or fungicidal activity
Escherichia coli; [4]
  The Zone of Growth Inhibition: 0 mm
Escherichia coli; [5]
  The Zone of Growth Inhibition: 0 mm
Escherichia coli; [6]
  The Zone of Growth Inhibition: 0 mm
Escherichia coli; [7]
  The Zone of Growth Inhibition: 0 mm
Escherichia coli; [8]
  The Zone of Growth Inhibition: 0 mm
Candida tropicalis; 1-50 mg/mL
  Fungicidal activity (in words): did not show either antibacterial activity or fungicidal activity
Candida tropicalis; compound concentration 1 mg/mL, 48 h at 32 °C
  The Zone of Growth Inhibition: 0 mm
Candida tropicalis; compound concentration 5 mg/mL, 48 h at 32 °C
  The Zone of Growth Inhibition: 0 mm
Candida tropicalis; compound concentration 10 mg/mL, 48 h at 32 °C
  The Zone of Growth Inhibition: 0 mm
Candida tropicalis; compound concentration 25 mg/mL, 48 h at 32 °C
  The Zone of Growth Inhibition: 0 mm
Candida tropicalis; compound concentration 50 mg/mL, 48 h at 32 °C
  The Zone of Growth Inhibition: 0 mm
[1]
  Dose-dependent antiviral effect: did not significantly reduce the viral load
[1]; A549, in vitro, working concentration
  Antiviral activity (in words): did not show antiviral activity

## CC(C)c1ccc2c(c1)CC[C@H]1[C@](C)(COC(=O)c3ccccc3)CCC[C@]21C [dehydroabietinol benzoate]
[2]
  Concentration at which HSV-1 replication was reduced: below 100 mg/mL

## CC(C)C1=CC2=CCC3C(C)(C(=O)[O-])CCCC3(C)C2CC1.[K+] (stereo not drawn) [II, Potassium abietate]
A549 cell culture
  Cytotoxicity (in words): highest cytotoxicity
  IC50: 240 µg/mL
A549 cell culture; [3]
  Decrease in viable cells: 50%
[1]
  Dose-dependent antiviral effect: led to a decrease in the antiviral effect
[1]; [9]
  Content of viral protein NP inside the cells (ELISA): decrease in the content of the viral protein NP inside the cells
  Viral load in supernatants obtained from cells (NP ELISA), vs control: slight decrease in the viral load

## CC(C)C1=CC2=CCC3C(C)(CO)CCCC3(C)C2CC1 (stereo not drawn) [XI, Abietinol]
Bacillus subtilis; Bacillus subtilis, compound concentration 1 mg/mL, 24 h at 37 °C, read-out: The Zone of Growth Inhibition
  zone of inhibition at 1000 µg/mL: 1 ± 0.15 mm
Bacillus subtilis; Bacillus subtilis, compound concentration 5 mg/mL, 24 h at 37 °C, read-out: The Zone of Growth Inhibition
  zone of inhibition at 5000 µg/mL: 2.2 ± 0.05 mm
Bacillus subtilis; Bacillus subtilis, compound concentration 10 mg/mL, 24 h at 37 °C, read-out: The Zone of Growth Inhibition
  zone of inhibition at 10000 µg/mL: 2 ± 0.15 mm
Bacillus subtilis; Bacillus subtilis, compound concentration 25 mg/mL, 24 h at 37 °C, read-out: The Zone of Growth Inhibition
  zone of inhibition at 25000 µg/mL: 4 ± 0.12 mm
Bacillus subtilis; Bacillus subtilis, compound concentration 50 mg/mL, 24 h at 37 °C, read-out: The Zone of Growth Inhibition
  zone of inhibition at 50000 µg/mL: 4 ± 0.09 mm
Bacillus subtilis; Bacillus subtilis, from disc diffusion, 1-50 mg/mL, read-out: minimum inhibitory concentration
  MIC: 1000 µg/mL (≈ 3.47 mM)
Escherichia coli; Escherichia coli, compound concentration 1 mg/mL, 24 h at 37 °C, read-out: The Zone of Growth Inhibition
  zone of inhibition at 1000 µg/mL: 0 mm
Escherichia coli; Escherichia coli, compound concentration 5 mg/mL, 24 h at 37 °C, read-out: The Zone of Growth Inhibition
  zone of inhibition at 5000 µg/mL: 1 ± 0.1 mm
Escherichia coli; Escherichia coli, compound concentration 10 mg/mL, 24 h at 37 °C, read-out: The Zone of Growth Inhibition
  zone of inhibition at 10000 µg/mL: 1 ± 0.1 mm
Escherichia coli; Escherichia coli, compound concentration 25 mg/mL, 24 h at 37 °C, read-out: The Zone of Growth Inhibition
  zone of inhibition at 25000 µg/mL: 3.5 ± 0.21 mm
Escherichia coli; Escherichia coli, compound concentration 50 mg/mL, 24 h at 37 °C, read-out: The Zone of Growth Inhibition
  zone of inhibition at 50000 µg/mL: 5 ± 0.14 mm
Escherichia coli; Escherichia coli, from disc diffusion, 1-50 mg/mL, read-out: minimum inhibitory concentration
  MIC: 5000 µg/mL (≈ 17.3 mM)
Candida tropicalis; Candida tropicalis, compound concentration 1 mg/mL, 48 h at 32 °C, read-out: The Zone of Growth Inhibition
  zone of inhibition at 1000 µg/mL: 0 mm
Candida tropicalis; Candida tropicalis, compound concentration 5 mg/mL, 48 h at 32 °C, read-out: The Zone of Growth Inhibition
  zone of inhibition at 5000 µg/mL: 1 ± 0.1 mm
Candida tropicalis; Candida tropicalis, compound concentration 10 mg/mL, 48 h at 32 °C, read-out: The Zone of Growth Inhibition
  zone of inhibition at 10000 µg/mL: 2 ± 0.1 mm
Candida tropicalis; Candida tropicalis, compound concentration 25 mg/mL, 48 h at 32 °C, read-out: The Zone of Growth Inhibition
  zone of inhibition at 25000 µg/mL: 4 ± 0.25 mm
Candida tropicalis; Candida tropicalis, compound concentration 50 mg/mL, 48 h at 32 °C, read-out: The Zone of Growth Inhibition
  zone of inhibition at 50000 µg/mL: 4.2 ± 0.15 mm

## CC(=O)OC[C@]1(C)CCC[C@]2(C)c3ccc(C(C)C)cc3CC[C@@H]12 [dehydroabietinol acetate]
[2]
  Concentration at which HSV-1 replication was reduced: below 100 mg/mL
